# Assay results as given in patent US9919027B2, “Lipid nanoparticle of polymyxin” (priority 2013, dated 2018).
# Assays:
# [1] = test system: mucosa producing P. aeruginosa strain; assay: In vivo efficacy in CD1 mice with pulmonary infection, lung bacteria count; conditions: infected CD1 mice; intratracheal, once a day for three days; 3000 IU (0.24 mg colistimethate sodium equivalent)
# Procedure: To carry out the in vivo toxicity and efficacy assays of the nanoparticles of the present invention, it was necessary to establish a rodent infection model. An intratracheal administration of different concentrations of mucosa producing P. aeruginosa included in microspheres (Concentration 1: 5×10^4 CFU, Concentration 2: 2.4×10^7 CFU, and Concentration 3: 3.89×10^10), obtained from a patient with cystic fibrosis, suspended in PBS, in CD1 mice was carried out, administering a different concentration to each rodent, to establish the optimum concentration for generating a suitable pulmonary infection, capable of making the rodents sick without causing their immediate death.
# Five mice were used as the control group and 64 mice infected with the inoculation of the bacteria of a mucosa producing P. aeruginosa strain, at a concentration of 2.4×10^7 CFU, as explained in Example 8, were used. […] The amounts were calculated by adjusting the dose recommended in humans with respect to the weight of the mice (3000 IU, equivalent to 0.24 mg of free colistimethate sodium, equivalent to 2.88 mg of the nanoparticles according to Example 1b and 2.52 mg of nanoparticles according to Example 2b). […]
# [2] = test system: 31 P. aeruginosa strains obtained from 31 patients with cystic fibrosis; assay: In vitro minimum inhibitory concentration (MIC) in MHBCA broth; type: cell-based; conditions: 24 hours at 37° C.
# Procedure: The antibacterial action of an antibiotic can be measured by means of the minimum inhibitory concentration, which consists of the concentration of the antibiotic required to prevent bacterial growth after the incubation of 10^4-5 bacteria in rapid growth phase, in an aerobic, protein-free medium with pH 7.2 for an incubation period of one night. This term is used to determine the sensitivity of the bacteria to a specific antibiotic agent.
# 100 μl of a concentration of 10^4 Colony Forming Units (CFU)/ml of 31 P. aeruginosa strains obtained from 31 patients with cystic fibrosis, 13 strains of which were mucus producers, were incubated for 24 hours at 37° C. in a Mueller Hinton broth, cation-adjusted (MHBCA) medium, corresponding to between 20 mg and 25 mg per liter of calcium and between 10 mg and 12.5 mg per liter of magnesium, assuring the reproducibility of the results for P. aeruginosa, in the presence of colistimethate sodium, and nanoparticles obtained according to Examples 1b and 2b, at different concentrations (less than 0.25, 0.25, 0.5, 1, 2, 4, 8 and 32 μg/ml).
# H441 cell line = assay: Cell viability IC50 (CCK-8) as toxicity marker, H441; type: cell-based, human; conditions: 24 h incubation, triplicate
# Procedure: (§1) The median inhibition concentration value (IC50) refers to the concentration of an assayed sample required to inhibit the growth of the 50% of the cell population. In this case IC50 value was estimated as a toxicity marker, as the cell viability assay is run under human cell (A549 and H441 cell lines, which are immortalised lines derived from human adenocarcinomic epithelial cell). Cells (at a density of 12,000 cells per well in a 96-well plate) were grown in Dulbecco's Modified Eagle Medium (DMEM) supplemented with 10% foetal bovine serum (FBS), 1% L-glutamine, 1% penicillin/streptomycin solution and 1% of Minimum Essential Medium non-essential amino acids 100× (MEM-NEAA) at 37° C. and 5% CO2 for 24 hours. Decreasing concentrations of nanoparticles 1b and 2b and free colistimethate sodium, starting from 10 mg/ml to 0.07812 mg/ml were added to the cells, diluted in DMEM supplemented with 0.5% serum and incubated at 37°±2° C. and 5% CO2 for 24 h. Cell viability was assessed by means of the Cell Counting Kit 8 after a washing step. With this aim, 10% of CCK-8 reagent was added to each well and incubated in a wet chamber for 4 hours at 37°±2° C. and 5% CO2. Subsequently, the absorbance was read at 450 nm and at 650 nm as the reference wavelength. The absorbance was directly proportional to the number of living cells in culture. […]
# A549 cell line = assay: Cell viability IC50 (CCK-8) as toxicity marker, A549; type: cell-based, human; conditions: 24 h incubation, triplicate
# Procedure: as §1
substance,measurement,setting,value
colistimethate sodium,Bacterial count (log CFU for every 2 lungs),[1],4.9 ± 0.2 log CFU for every 2 lungs
same,MIC,[2]; obtained for 16% of the 31 strains,0.5 µg/mL
same,MIC,[2]; obtained for 25% of the 31 strains,1 µg/mL
same,MIC,[2]; obtained for 48% of the 31 strains,2 µg/mL
same,MIC,[2]; obtained for the remaining strains,4 µg/mL
same,"IC50 (median inhibition concentration, cell viability)",H441 cell line,6.58 ± 0.72 µg/mL
same,"IC50 (median inhibition concentration, cell viability)",A549 cell line,101.27 ± 14.44 µg/mL
